pIC50: −log10 of the molar value.
What was measured:
wtERBB2 = wtERBB2 (Homo sapiens (Human), UniProt P04626); assay: HotSpot radiometric kinase activity assay, wtERBB2; format: biochemical; details: 30 nM wtERBB2, 10 μM 33P-ATP, 20 min preincubation, 2 hours, read-out: HER2 WT IC50
Protocol: The purpose of the wtERBB2, ERBB2-A775_G776insYVMA (ERBB2YVMA), wtEGFR biochemical assay was to evaluate the inhibition (% inhibition and IC50 values) of the small molecule inhibitors by using the “HotSpot” radiometric kinase activity assay. HotSpot assays monitor the […] of kinase substrate by the radioactive gamma phosphate of adenosine triphosphate (33P-ATP) during biochemical reactions. HotSpot assays was performed in steps upon completion of the kinase reaction: deposition of a reaction mixture aliquot onto P81 ion exchange paper, extensive washing of the aforementioned P81 paper using phosphoric acid to remove unbound radiolabeled 33P-ATP from the P81 paper, and finally visualization and quantification of the dried P81 paper utilizing a phosphoimager. […] Typical reaction solutions (10 μL final reaction volume) contained the following buffer conditions: 20 mM Hepes (pH 7.5), 10 mM MgCl2, 1 mM EGTA, 0.01% Brij35, 0.02 mg/mL BSA, 0.1 mM Na3VO4, 2 mM DTT, 1% DMSO. The assay was primed by preparing a fresh 0.2 mg/mL solution of pEY (Sigma Cat: P7244) substrate in the reaction buffer and supplementing that solution with […] of MnCl2 as substrate cofactor (Sigma Cat: M9522). The kinase of interest was then added to the solution at the appropriate concentration (30 nM wtERBB2 from, or 20 nM ERBB2YVMA, or 4 nM wtEGFR) and gently mixed prior to delivery of compound in 100% DMSO by acoustic dispensing (Beckman Echo550). Compound, Kinase, and substrate were allowed to incubate for 20 min at room temperature prior to the initiation of the reaction by addition of 33P-ATP (PerkinElmer Cat: NEG602, final conc 10 μM). […] IC50 determinations were made from a plot of kinase activity as a function of inhibitor concentration fit to the 4-parameter IC50 equation with the enzyme concentration held constant using GraphPad Prism (San Diego).

BaF3_EGFRWT cells = assay: Cell growth inhibition assay, BaF3_EGFRWT; format: cell-based; details: 72 h, 80 ng/mL recombinant human EGF, 3 days treatment, CellTiterGlo 2.0, read-out: EGFR WT IC50 (nM), cell growth inhibition
BaF3_HER2YVMA cells = assay: Cell growth inhibition assay, BaF3_HER2YVMA; format: cell-based; details: 72 h, BaF3_HER2YVMA cells, 3 days treatment, CellTiterGlo 2.0; read-out: HER2-YVMA IC50 (nM), cell growth inhibition
BaF3_HER2WT cells = assay: Cell growth inhibition assay, BaF3_HER2WT; format: cell-based; details: 72 h, 3 days treatment, CellTiterGlo 2.0, read-out: HER2 WT IC50 (nM), cell growth inhibition

Sequence of wtERBB2 (P04626 23-1255): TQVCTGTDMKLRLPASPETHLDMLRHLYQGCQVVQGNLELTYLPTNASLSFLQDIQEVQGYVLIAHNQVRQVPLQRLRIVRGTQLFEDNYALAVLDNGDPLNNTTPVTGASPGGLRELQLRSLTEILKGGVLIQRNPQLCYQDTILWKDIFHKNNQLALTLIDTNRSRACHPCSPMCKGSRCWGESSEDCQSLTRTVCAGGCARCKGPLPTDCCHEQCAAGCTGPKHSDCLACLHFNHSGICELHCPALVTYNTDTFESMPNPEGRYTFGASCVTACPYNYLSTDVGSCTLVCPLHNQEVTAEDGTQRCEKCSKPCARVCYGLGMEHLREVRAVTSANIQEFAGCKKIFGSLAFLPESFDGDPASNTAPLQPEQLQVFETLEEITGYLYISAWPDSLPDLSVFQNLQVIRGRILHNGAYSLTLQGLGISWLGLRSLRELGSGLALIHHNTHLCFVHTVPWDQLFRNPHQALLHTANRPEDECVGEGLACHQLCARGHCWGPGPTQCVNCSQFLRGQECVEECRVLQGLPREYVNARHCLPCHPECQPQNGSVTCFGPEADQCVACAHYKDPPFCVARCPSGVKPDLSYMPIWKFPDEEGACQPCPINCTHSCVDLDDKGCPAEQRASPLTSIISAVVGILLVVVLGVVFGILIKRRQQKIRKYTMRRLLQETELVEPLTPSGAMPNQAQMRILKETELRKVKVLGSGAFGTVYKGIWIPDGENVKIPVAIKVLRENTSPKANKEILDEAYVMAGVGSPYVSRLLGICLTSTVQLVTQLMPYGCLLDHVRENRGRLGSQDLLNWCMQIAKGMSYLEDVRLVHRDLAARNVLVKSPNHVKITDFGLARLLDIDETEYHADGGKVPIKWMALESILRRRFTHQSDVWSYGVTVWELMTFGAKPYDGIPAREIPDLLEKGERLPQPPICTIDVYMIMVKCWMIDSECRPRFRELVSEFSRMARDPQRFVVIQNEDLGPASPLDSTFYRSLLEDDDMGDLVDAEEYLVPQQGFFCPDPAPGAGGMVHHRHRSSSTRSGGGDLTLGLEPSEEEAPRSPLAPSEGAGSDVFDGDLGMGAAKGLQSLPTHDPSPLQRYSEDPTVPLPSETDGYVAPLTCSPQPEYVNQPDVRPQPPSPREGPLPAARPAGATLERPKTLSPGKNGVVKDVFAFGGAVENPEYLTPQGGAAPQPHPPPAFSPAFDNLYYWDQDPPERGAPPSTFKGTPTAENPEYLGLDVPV

Row | SMILES | pIC50 (wtERBB2) | IC50 (BaF3_EGFRWT cells) [nM] | IC50 (BaF3_HER2YVMA cells) [nM] | IC50 (BaF3_HER2WT cells) [nM]
1 | Cc1cc(Nc2ncnn3ccc([C@H]4CCCN(C(=O)/C=C/CN(C)C)C4)c23)ccc1Oc1ccn2ncnc2c1 [Example 108, (R,E)-1-(3-(4-((4-([1,2,4]triazolo[1,5-a]pyridin-7-yloxy)-3-methylphenyl)amino)-pyrrolo[2,1-f][1,2,4]-triazin-5-yl)piperidin-1-yl)-4-(dimethylamino)but-2-en-1-one] | > 6.70 |  |  | 
2 | C=CC(=O)NC1CCN(C(=O)c2ccn3ncnc(Nc4ccc(Oc5ccn6ncnc6c5)c(C)c4)c23)CC1 [Example 5, N-(1-(4-((4-([1,2,4]triazolo[1,5-a]pyridin-7-yloxy)-3-methylphenyl)amino)pyrrolo[2,1-f][1,2,4]triazine-5-carbonyl)piperidin-4-yl)acrylamide] | > 6.70 | 1500 to 5000 | 200 to 500 | < 200
3 | C=CC(=O)NCCn1cc(-c2ccn3ncnc(Nc4ccc(Oc5ccn6ncnc6c5)c(C)c4)c23)cn1 [Example 13, N-(2-(4-(4-((4-([1,2,4]triazolo[1,5-a]pyridin-7-yloxy)-3-methylphenyl)amino)pyrrolo[2,1-f][1,2,4]triazin-5-yl)-1H-pyrazol-1-yl)ethyl)acrylamide] | > 6.70 | 1500 to 5000 | 200 to 500 | < 200
4 | Cc1cc(Nc2ncnn3ccc(-c4cnn(CCNC(=O)/C=C/CN(C)C)c4)c23)ccc1Oc1ccn2ncnc2c1 [Example 103, (E)-N-(2-(4-(4-((4-([1,2,4]triazolo[1,5-a]pyridin-7-yloxy)-3-methylphenyl)amino)pyrrolo[2,1-f][1,2,4]triazin-5-yl)-1H-pyrazol-1-yl)ethyl)-4-(dimethylamino)but-2-enamide] | > 6.70 | 1500 to 5000 | 1500 to 5000 | 1500 to 5000
5 | Cc1cc(Nc2ncnn3ccc(C4CN(C(=O)/C=C/CN)C4)c23)ccc1Oc1ccn2ncnc2c1 [Example 87, (E)-1-(3-(4-((4-([1,2,4]triazolo[1,5-a]pyridin-7-yloxy)-3-methylphenyl)amino)pyrrolo[2,1-f][1,2,4]triazin-5-yl)azetidin-1-yl)-4-aminobut-2-en-1-one] | > 6.70 | 1500 to 5000 | 1500 to 5000 | 1500 to 5000
6 | C=CC(=O)N1CCC2(C1)CN(c1ccn3ncnc(Nc4ccc(Oc5ccn6ncnc6c5)c(C)c4)c13)C2 [Example 155, 1-(2-{4-[(3-methyl-4-{[1,2,4]triazolo[1,5-a]pyridin-7-yloxy}phenyl)amino]pyrrolo[2,1-f][1,2,4]triazin-5-yl}-2,6-diazaspiro[3.4]octan-6-yl)prop-2-en-1-one] | > 6.70 | 1500 to 5000 | 200 to 500 | < 200
7 | Cc1cc(Nc2ncnn3ccc([C@H]4CCCN(C(=O)/C=C/CN(C)C)CC4)c23)ccc1Oc1ccn2ncnc2c1 [Example 110, (S,E)-1-(4-(4-((4-([1,2,4]triazolo[1,5-a]pyridin-7-yloxy)-3-methylphenyl)amino)pyrrolo[2,1-f][1,2,4]triazin-5-yl)azepan-1-yl)-4-(dimethylamino)but-2-en-1-one] | > 6.70 |  |  | 
8 | Cc1cc(Nc2ncnn3ccc([C@H]4CCN(C(=O)/C=C/CN(C)C)C4)c23)ccc1Oc1ccn2ncnc2c1 [Example 100, (R,E)-1-(3-(4-((4-([1,2,4]triazolo[1,5-a]pyridin-7-yloxy)-3-methylphenyl)amino)-pyrrolo[2,1-f]1,2,4-triazin-5-yl)pyrrolidin-1-yl)-4-(dimethylamino)but-2-en-1-one] | > 6.70 |  |  | 
9 | Cc1cc(Nc2ncnn3ccc([C@@H]4CCCN(C(=O)/C=C/CN(C)C)C4)c23)ccc1Oc1ccn2ncnc2c1 (single isomer, unassigned) [Example 107] | > 6.70 |  |  | 
10 | CO[C@@H]1CN(C/C=C/C(=O)N2CCC(c3ccn4ncnc(Nc5ccc(Oc6ccn7ncnc7c6)c(C)c5)c34)CC2)C[C@H]1OC [Example 170, (E)-1-(4-(4-((4-([1,2,4]triazolo[1,5-a]pyridin-7-yloxy)-3-methylphenyl)amino)pyrrolo[2,1-f][1,2,4]triazin-5-yl)piperidin-1-yl)-4-((3R,4R)-3,4-dimethoxypyrrolidin-1-yl)but-2-en-1-one] |  | 1500 to 5000 | < 200 | < 200
